Consider three compounds from US6713260B2, “Methods of identifying compounds that bind to target species under isothermal denaturing conditions” (Pharmacia & Upjohn Company, priority 1999, dated 2004).

Experiment [1] addresses T1, S. aureus thymidylate kinase (TK) (Staphylococcus aureus, UniProt P65248).
T1 construct: 6-his tag; made in house
The experiment in a line: biochemical. The experiment is classed as binding.

For experiment [2], the target named is T2, S. aureus uridylate kinase (UK) (Staphylococcus aureus, UniProt Q2FZ22).
T2 sequence (Q2FZ22 1-240): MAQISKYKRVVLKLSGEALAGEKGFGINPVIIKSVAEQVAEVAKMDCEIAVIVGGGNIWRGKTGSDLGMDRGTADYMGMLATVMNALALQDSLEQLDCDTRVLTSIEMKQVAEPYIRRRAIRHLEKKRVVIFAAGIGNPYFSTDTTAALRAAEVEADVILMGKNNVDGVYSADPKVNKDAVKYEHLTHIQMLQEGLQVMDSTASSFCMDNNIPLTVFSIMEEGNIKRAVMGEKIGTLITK
Description: Robotic HTS isothermal denaturation assay, uridylate kinase, Nano Orange.
Description: Temperature was controlled with a circulating waterbath.
Validation of Robotic HTS Assay.

Another experiment has as its target T3, uridylate kinase (UK) (Staphylococcus aureus, UniProt Q2FZ22).
T3 construct: 6-his tag (implied by Ni-NTA purification); made in house
T3 sequence (Q2FZ22 1-240): T2 sequence (Q2FZ22 1-240)
The experiment in a line: Uridylate kinase activity assay at 25° C. The experiment is classed as biochemical, S. aureus. The settings on record: read-out: apparent Kd obtained from an activity assay.

Experiment [3] deals with T4, Stromelysin (Homo sapiens, UniProt P08254).
T4 construct: made in house
T4 sequence (P08254 100-264 limits assumed): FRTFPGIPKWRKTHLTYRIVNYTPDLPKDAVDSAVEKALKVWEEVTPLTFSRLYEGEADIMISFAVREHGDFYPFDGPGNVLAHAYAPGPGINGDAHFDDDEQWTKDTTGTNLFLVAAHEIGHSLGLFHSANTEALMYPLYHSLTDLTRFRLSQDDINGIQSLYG
The experiment in a line: Isothermal denaturation of stromelysin monitored by SYPRO Orange fluorescence. Conditions: 75° C. The class given is binding.
Description: Time-Dependency of the isothermal denaturation of Stromelysin monitored by SYPRO Orange Fluorescence. […] The data for the control reaction were analyzed using Equation 4, and those for the inhibited reactions with Equation 11. […] The solid lines represent the theoretical fits to the experimental data points.
The time-dependencies of the fluorescence of extrinsic dyes during isothermal denaturation were monitored as follows. The test dye was added to a stirred cuvette containing 2 milliliters (mL) of buffer that had been thermally preequilibrated at the desired temperature. A dye baseline was recorded for 45 seconds and the denaturation reaction initiated by the addition of a small aliquot of the protein stock solution. In this way, the protein reached the temperature of denaturation virtually instantaneously. In separate experiments, the protein was kept at the denaturation temperature in the absence of dye and the reporter molecule added at the end of the reaction. In the latter experiments, the fluorescence increase associated with the addition of dye was always instantaneous.
Two parameters derived from the fluorescence kinetic curves measure the rate of denaturation, namely, the slope at the inflection point, and the first-order rate constant.

Experiment [4] deals with T4, Stromelysin. Description: Isothermal denaturation of stromelysin monitored by UV absorbance (hyperchromicity at 280 nm). The experiment is classed as binding. The settings on record: 75° C.; absorbance at 280 nm. The method, then: Sci., 7; 2118-2126 (1998).
UV absorbance was measured using a Perkin-Elmer Lambda 40 UV-Vis dual-beam spectrophotometer (Perkin-Elmer Corp. Norwalk, Conn.). A capped 1.0 cm pathlength quartz cuvette filled with buffer was placed in the reference beam. In the sample beam, a capped 1.0 cm path length quartz cuvette containing 1.5 mL of degassed buffer or buffer plus ligand—less the volume of protein solution to be added—was placed in a thermostated cell holder and equilibrated at the temperature of isothermal denaturation. The temperature was maintained within 0.1° C. using a Neslab Exacal EX200 circulating water bath (Neslab Instruments, Inc. Portsmouth, N.H.). A 1-5 μL aliquot of the protein stock solution was added to the cuvette containing buffer or buffer plus ligand to yield a final volume of 1.5 mL and protein concentration near 0.5 μM. The cuvette was recapped and absorbance at 280 nm was measured every 1 second for up to 30 minutes with a bandwidth of 2 nm and response of 0.5 second. For each protein, the effects of several ligand concentrations were examined ranging from about 0.5 μM to about 400 μM. Cuvettes were thoroughly cleaned as described above with nitric acid and with 10% methanol and rinsed with distilled water and ethanol between experiments.
Absorbance. […]

T1 sequence (P65248 whole entry): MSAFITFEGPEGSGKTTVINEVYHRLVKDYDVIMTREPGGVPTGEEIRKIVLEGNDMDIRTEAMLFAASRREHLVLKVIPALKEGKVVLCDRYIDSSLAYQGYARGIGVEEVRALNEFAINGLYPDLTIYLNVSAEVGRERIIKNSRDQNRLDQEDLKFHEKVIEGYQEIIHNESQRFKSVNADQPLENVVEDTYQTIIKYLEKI

For the compound `Cc1cn([C@H]2C[C@H](O)[C@@H](COP(=O)(O)O)O2)c(=O)[nH]c1=O` [TMP, Thymidine monophosphate], the Kd in experiment [1] (Kd calculated from the rate constants) is 7.6 ± 0.8 mM; in experiment [1] (Kd calculated from the slopes), 9.1 ± 1.6 mM.

Consider `O=c1ccn([C@@H]2O[C@H](COP(=O)(O)O)[C@@H](O)[C@H]2O)c(=O)[nH]1` [UMP, uridine monophosphate], for which the Kd in experiment [2] stood at 5.76 ± 0.95 mM; at uridylate kinase (UK) it was 1 mM. Also, the effect on denaturation entry in experiment [2] (41° C., 96-well microplate, robotic) is “concentration-dependent”.

Consider `CNC(=O)[C@H](Cc1ccc(O)cc1)NC(=O)Nc1n[nH]c(=S)s1` [PNU-143988], for which the “effect on denaturation of stromelysin” value on Stromelysin [3] is given as “inhibited in a dose-dependent manner”. On Stromelysin [4], the “effect on hyperchromicity changes” value is “dose-dependent inhibition of both the rate and magnitude”.
